The values that follow come from US9919034B2, “Methods of treating and prophylactically protecting mammalian patients infected by viruses classified in Baltimore group V” (priority 2014, dated 2018).

Read-outs that look alike come from different tables or passages of the source.

One series has as its system vaccinia, strain WR. As to the kind of experiment: microbe, parasite or virus in culture. Type of series: cell-based. The settings on record: read-out: EC50 (concentration reducing plaque numbers by 50%).
The subject of another series is Vero 76 cells. In words: Toxicity in Vero 76 cells (crystal violet staining density).
The test system of series [1] is adenovirus 2, strain Miller. In words: Adenovirus yield in NHBE cells (titers in A-549 cells). Type of series: cell-based. The settings on record: for reduction in virus titers: vs untreated infected controls.
The subject of series [2] is NHBE cells.
Series [3] deals with NHBE cells. As to the kind of experiment: Microscopy evaluation of treated NHBE cells (RSV study toxicity controls). The settings on record: sham infected.
A further series concerns MERS-CoV virus. Format: cell-based.
Series [4] relates to influenza A/California/07/2009(H1N1)pdm09 virus. Type of series: cell-based.
The test system of another series is VEEV. Type of series: cell-based.
For a further series, the system named is RSV A2. In words: RSV yield in NHBE cells (titers in MA-104 cells). Type of series: cell-based. The settings on record: all treatments (5 μM, 0.5 μM, 0.1 μM), 48 hours post infection.
The next series concerns RV-14 (strain 1059). In words: RV-14 yield in NHBE cells (titers in HeLa-Ohio-1 cells). Format: cell-based, rhinovirus-14.
The subject of series [5] is NHBE cells. The source holds these as a separate data set.
Another series relates to tRNA. The settings on record: Lin et al., 1994; cited from earlier work.
A further series has as its system A-72 cells. As to the kind of experiment: Cytotoxicity of ranpirnase in A-72 cells (morphology). The settings on record: any of the concentrations tested, 4 days.
For series [6], the system named is NHBE cells. In words: Microscopy evaluation of treated NHBE cells (RV-14 study toxicity controls).

On to `Nc1ccn(C[C@@H](CO)OCP(=O)(O)O)c(=O)n1` [cidofovir, reference compound], for which, in the series with vaccinia, strain WR (Orthopoxvirus vaccinia, Vero 76, 48 h), the EC50 came out at 10 µM. Besides, in the series with Vero 76 cells (dilutions used in the assay), the toxicity result is reported as “Neither ranpirnase nor cidofovir was toxic”.
Consider `Nc1ccn([C@H]2CC[C@@H](CO)O2)c(=O)n1` [2′3′-dideoxycytidine, reference compound], for which the “inhibition of virus replication (positive control)” value in [1] (NHBE cells, adenovirus MOI 0.1) is reported as “inhibited virus replication as expected”. In addition, the “microscopy evaluation of treated NHBE cells (toxicity)” value (“microscopy evaluation” for short) in the series with NHBE cells [2] and in the series on NHBE cells [3] was “no toxicological phenomena” each time.
On to ranpirnase, for which the “activity against MERS-CoV virus compared with SARS protease inhibitor and Infergen (viral titer)” value with MERS-CoV virus is “far more active”. Also, in series [4], the “activity against influenza A/California/07/2009(H1N1)pdm09 virus (virus titer)” value is “statistically significant and dose-dependent”. Also, in the series with VEEV, the “inhibition of VEEV” value is “robust inhibition”. Moreover, the “reduction in virus titers” value in series [1] (5 μM) is recorded as around 1 log; in [1] (10 μM), around 1 log; in the series with RV-14 (strain 1059) (1 μM, 4 days post infection), around 1 log. In addition, the “drop in virus titer” value was “approximately three” in series [1] (50 μM, vs placebo); around 1.67 log 10 in the series with RV-14 (strain 1059) (5 μM, 4 days post infection); around 1.67 log 10 with RV-14 (strain 1059) (10 μM, 4 days post infection); around 1.67 log 10 with RV-14 (strain 1059) (50 μM, 4 days post infection). The “virus titers after treatment” value (in series [1] (all treatments except the lowest dose); with RSV A2) was “undetectable levels” in each case. In addition, in the series on RSV A2, the “reduction in virus titers compared to untreated, infected controls” value came out at 2.3 log. For the same compound, the EC50 with vaccinia, strain WR turned out to be 3.8 µM. Moreover, in the series with NHBE cells [5], the “viability of NHBE cells” value is “did not decrease the viability”. Also, the entries for the “SI (CC50/IC50)” value with CHIV and in the series with EBOV were “over 18” and 40-77, respectively. Besides, the “inhibition of CHIV” value in the series with CHIV is “robust inhibition”. Also, in the series with EBOV, the “inhibition of EBOV” value is “robust inhibition”. Also, the “microscopy evaluation” value in the series with NHBE cells [2], in the series on NHBE cells [3] and in the series with NHBE cells [6] was “no toxicological phenomena” each time. In the series on tRNA, the “degradation of tRNA” value is “degrades tRNA very effectively”. Besides, the “cytotoxic effect (visual morphology)” value in the series with A-72 cells was “no apparent cytotoxic effect”. Also, the figures for the toxicity entry in the series with Vero 76 cells (100 μM) and in the series on Vero 76 cells (dilutions used in the assay) were “not toxic” and “Neither ranpirnase nor cidofovir was toxic”, respectively.
Turning to `CCOC(=O)c1ccc(OCCC2CCN(c3ccc(C)nn3)CC2)cc1` [pirodavir, reference compound], the “activity against RV-14” value in the series with RV-14 (strain 1059) (0.0032 μg/ml, NHBE cells) is “inactive”. Also, the “inhibition of virus replication (positive control)” value in the series with RV-14 (strain 1059) (10 and 3.2 μg/ml) is “inhibited virus replication as expected”. In the series with NHBE cells [6], the “microscopy evaluation” value was “no toxicological phenomena”.
